Laboratory results published in the supplement of paper PMC10307832.

Columns and labels:
Test in all cases: relative viability (nuclei count vs DMSO), 5 days (fraction); higher = more cells survive
ChaGo-K-1 = tested on: ChaGo-K-1
In short: (§1)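 Relative viability divides the nuclei count in treated wells by that in vehicle wells. Lung cancer cell lines were seeded in 1536-well plates, dosed by pin tool the next day, and fixed and stained after 5 days in one step with final 0.05% Triton X-100, 1% formaldehyde and 1 ug/ml Hoechst. Dosing was a single drug or a fixed anchor-drug dose plus five library-drug doses (not always all listed) in √10 steps, and values are medians of duplicate plates imaged at 4×.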

NCI-H661 = tested on: NCI-H661
In short: as §1

NCI-H358 = tested on: NCI-H358
In short: as §1

NCI-H2342 = tested on: NCI-H2342
In short: as §1

LU99A = tested on: LU99A
In short: as §1

BEN = tested on: BEN
In short: as §1

NCI-H596 = tested on: NCI-H596
In short: as §1

LCLC-97TM1 = tested on: LCLC-97TM1
In short: as §1

NCI-H1651 = tested on: NCI-H1651
In short: as §1

NCI-H2087 = tested on: NCI-H2087
In short: as §1

LC-2-ad = tested on: LC-2-ad
In short: as §1

NCI-H1666 = tested on: NCI-H1666
In short: as §1

HCC-15 = tested on: HCC-15
In short: as §1

HCC-78 = tested on: HCC-78
In short: as §1

NCI-H1944 = tested on: NCI-H1944
In short: as §1

NCI-H650 = tested on: NCI-H650
In short: as §1

NCI-H322M = tested on: NCI-H322M
In short: as §1

PC-3 [JPC-3] = tested on: PC-3 [JPC-3]
In short: as §1

UMC-11 = tested on: UMC-11
In short: as §1

NCI-H838 = tested on: NCI-H838
In short: as §1

LXF-289 = tested on: LXF-289
In short: as §1

SK-MES-1 = tested on: SK-MES-1
In short: as §1

LK-2 = tested on: LK-2
In short: as §1

CC1(C)CCC(c2ccc(Cl)cc2)=C(CN2CCN(c3ccc(C(=O)NS(=O)(=O)c4ccc(N[C@H](CCN5CCOCC5)CSc5ccccc5)c(S(=O)(=O)C(F)(F)F)c4)cc3)CC2)C1 [Navitoclax] + N=C(N)NC(=N)NCCc1ccccc1 [Phenformin] (partner 250 µM)
relative viability (ChaGo-K-1; first compound 0.005 µM): 0.459
relative viability (ChaGo-K-1; first compound 0.01581 µM): 0.502
relative viability (ChaGo-K-1; first compound 0.05 µM): 0.397
relative viability (ChaGo-K-1; first compound 0.1581 µM): 0.48
relative viability (ChaGo-K-1; first compound 0.5 µM): 0.501
relative viability (NCI-H661; first compound 0.005 µM): 0.253
relative viability (NCI-H661; first compound 0.01581 µM): 0.298
relative viability (NCI-H661; first compound 0.05 µM): 0.262
relative viability (NCI-H661; first compound 0.1581 µM): 0.257
relative viability (NCI-H661; first compound 0.5 µM): 0.258
relative viability (NCI-H358; first compound 0.005 µM): 0.362
relative viability (NCI-H358; first compound 0.01581 µM): 0.376
relative viability (NCI-H358; first compound 0.05 µM): 0.357
relative viability (NCI-H358; first compound 0.1581 µM): 0.343
relative viability (NCI-H358; first compound 0.5 µM): 0.424
relative viability (NCI-H2342; first compound 0.005 µM): 0.602
relative viability (NCI-H2342; first compound 0.01581 µM): 0.627
relative viability (NCI-H2342; first compound 0.05 µM): 0.486
relative viability (NCI-H2342; first compound 0.1581 µM): 0.599
relative viability (NCI-H2342; first compound 0.5 µM): 0.624
relative viability (LU99A; first compound 0.005 µM): 0.878
relative viability (LU99A; first compound 0.01581 µM): 0.993
relative viability (LU99A; first compound 0.05 µM): 0.726
relative viability (LU99A; first compound 0.1581 µM): 0.829
relative viability (LU99A; first compound 0.5 µM): 0.928
relative viability (BEN; first compound 0.005 µM): 0.246
relative viability (BEN; first compound 0.01581 µM): 0.265
relative viability (BEN; first compound 0.05 µM): 0.248
relative viability (BEN; first compound 0.1581 µM): 0.294
relative viability (BEN; first compound 0.5 µM): 0.232
relative viability (NCI-H596; first compound 0.005 µM): 0.742
relative viability (NCI-H596; first compound 0.01581 µM): 0.71
relative viability (NCI-H596; first compound 0.1581 µM): 0.67
relative viability (NCI-H596; first compound 0.5 µM): 0.815
relative viability (LCLC-97TM1; first compound 0.005 µM): 0.447
relative viability (LCLC-97TM1; first compound 0.01581 µM): 0.504
relative viability (LCLC-97TM1; first compound 0.05 µM): 0.403
relative viability (LCLC-97TM1; first compound 0.1581 µM): 0.477
relative viability (LCLC-97TM1; first compound 0.5 µM): 0.507
relative viability (NCI-H1651; first compound 0.005 µM): 0.3
relative viability (NCI-H1651; first compound 0.01581 µM): 0.3
relative viability (NCI-H1651; first compound 0.05 µM): 0.298
relative viability (NCI-H1651; first compound 0.1581 µM): 0.353
relative viability (NCI-H1651; first compound 0.5 µM): 0.295
relative viability (NCI-H2087; first compound 0.005 µM): 0.475
relative viability (NCI-H2087; first compound 0.01581 µM): 0.452
relative viability (NCI-H2087; first compound 0.1581 µM): 0.407
relative viability (NCI-H2087; first compound 0.5 µM): 0.428
relative viability (LC-2-ad; first compound 0.005 µM): 0.577
relative viability (LC-2-ad; first compound 0.01581 µM): 0.653
relative viability (LC-2-ad; first compound 0.05 µM): 0.58
relative viability (LC-2-ad; first compound 0.1581 µM): 0.505
relative viability (LC-2-ad; first compound 0.5 µM): 0.572
relative viability (NCI-H1666; first compound 0.005 µM): 0.604
relative viability (NCI-H1666; first compound 0.01581 µM): 0.573
relative viability (NCI-H1666; first compound 0.05 µM): 0.511
relative viability (NCI-H1666; first compound 0.1581 µM): 0.534
relative viability (NCI-H1666; first compound 0.5 µM): 0.559
relative viability (HCC-15; first compound 0.005 µM): 0.453
relative viability (HCC-15; first compound 0.01581 µM): 0.488
relative viability (HCC-15; first compound 0.05 µM): 0.406
relative viability (HCC-15; first compound 0.1581 µM): 0.483
relative viability (HCC-15; first compound 0.5 µM): 0.422
relative viability (HCC-78; first compound 0.005 µM): 0.727
relative viability (HCC-78; first compound 0.01581 µM): 0.692
relative viability (HCC-78; first compound 0.1581 µM): 0.645
relative viability (HCC-78; first compound 0.5 µM): 0.75
relative viability (NCI-H1944; first compound 0.005 µM): 0.183
relative viability (NCI-H1944; first compound 0.01581 µM): 0.191
relative viability (NCI-H1944; first compound 0.05 µM): 0.182
relative viability (NCI-H1944; first compound 0.1581 µM): 0.211
relative viability (NCI-H1944; first compound 0.5 µM): 0.146
relative viability (NCI-H650; first compound 0.005 µM): 0.447
relative viability (NCI-H650; first compound 0.01581 µM): 0.473
relative viability (NCI-H650; first compound 0.05 µM): 0.456
relative viability (NCI-H650; first compound 0.1581 µM): 0.456
relative viability (NCI-H650; first compound 0.5 µM): 0.504
relative viability (NCI-H322M; first compound 0.005 µM): 0.805
relative viability (NCI-H322M; first compound 0.01581 µM): 0.923
relative viability (NCI-H322M; first compound 0.05 µM): 0.776
relative viability (NCI-H322M; first compound 0.1581 µM): 0.848
relative viability (NCI-H322M; first compound 0.5 µM): 0.954
relative viability (PC-3 [JPC-3]; first compound 0.005 µM): 0.466
relative viability (PC-3 [JPC-3]; first compound 0.01581 µM): 0.48
relative viability (PC-3 [JPC-3]; first compound 0.05 µM): 0.516
relative viability (PC-3 [JPC-3]; first compound 0.1581 µM): 0.453
relative viability (PC-3 [JPC-3]; first compound 0.5 µM): 0.41
relative viability (UMC-11; first compound 0.005 µM): 0.303
relative viability (UMC-11; first compound 0.01581 µM): 0.323
relative viability (UMC-11; first compound 0.05 µM): 0.35
relative viability (UMC-11; first compound 0.1581 µM): 0.242
relative viability (UMC-11; first compound 0.5 µM): 0.273
relative viability (NCI-H838; first compound 0.005 µM): 0.529
relative viability (NCI-H838; first compound 0.01581 µM): 0.735
relative viability (NCI-H838; first compound 0.05 µM): 0.757
relative viability (NCI-H838; first compound 0.1581 µM): 0.749
relative viability (NCI-H838; first compound 0.5 µM): 0.664
relative viability (LXF-289; first compound 0.005 µM): 0.524
relative viability (LXF-289; first compound 0.01581 µM): 0.531
relative viability (LXF-289; first compound 0.05 µM): 0.498
relative viability (LXF-289; first compound 0.1581 µM): 0.506
relative viability (LXF-289; first compound 0.5 µM): 0.5
relative viability (SK-MES-1; first compound 0.005 µM): 0.581
relative viability (SK-MES-1; first compound 0.01581 µM): 0.746
relative viability (SK-MES-1; first compound 0.05 µM): 0.684
relative viability (SK-MES-1; first compound 0.1581 µM): 0.681
relative viability (SK-MES-1; first compound 0.5 µM): 0.722
relative viability (LK-2; first compound 0.005 µM): 0.417
relative viability (LK-2; first compound 0.01581 µM): 0.551
relative viability (LK-2; first compound 0.05 µM): 0.379
relative viability (LK-2; first compound 0.1581 µM): 0.353
relative viability (LK-2; first compound 0.5 µM): 0.395
